Experimental data published in patent US12173018B2, “Penicillin-binding protein inhibitors” (priority 2018, dated 2024).
pEC50: −log10 of the molar value. Like-named read-outs stand apart in the source and are kept apart here.

What was measured:
P. aeruginosa PAO1 = assay: Broth microdilution MIC, P. aeruginosa PAO1; format: cell-based; details: Pseudomonas aeruginosa
Description: (§1) To determine the ability of test compounds to potentiate the inhibition of the growth of bacterial strains, classic cell based broth microdilution minimum inhibitory concentration (MIC) assays were employed. MIC assays are performed according to CLSI methods except where otherwise noted (CLSI, 2011 and CLSI, 2009). The reference type strain E. coli ATCC 25922, the wild-type parent strain E. coli AG100, the hyper-permeable E. coli 901C and E. coli D22 and the E. coli AG100A strain lacking the acrAB efflux pump encoding genes were used to determine the ability of the PBP inhibitors to penetrate the outer membrane of gram-negative bacteria and inhibit bacterial growth. […] The P. aeruginosa PAO1, P. aeruginosa ATCC 27853 and A. baumannii ATCC 19606, along with the hyper-permeable P. aeruginosa ATCC 35151 and an engineered efflux pump-compromised strain of P. aeruginosa (ΔmexAB-oprM) were used to determine the ability of PBP inhibitors to penetrate the outer membrane of P. aeruginosa and A. baumannii and assess antibacterial activity against these important gram-negative organisms.
(§2) Briefly, cryo-preserved bacterial cultures of challenge strains are streaked for isolation on appropriate agar medium, in this case Mueller Hinton II agar. Following incubation to allow growth of the colonies, plates are sealed with parafilm and stored refrigerated for up to two weeks. For preparation of assay inoculum and to ensure low variability, at least 5 colonies are picked from the agar plates with an inoculating loop and aseptically transferred to a culture tube containing 3 mL of Mueller-Hinton Broth (supplemented with divalent cations to required levels based on Manufacturers' certification). The broth culture is grown for 3-5 hours at 37° C. with shaking at 200 rpm. Meanwhile, 2-fold serial dilutions of test compounds are conducted in a 96 well plate with a final volume of 75 μL per well at 2-fold the final desired concentration. After the dilution plates are set up the growing cultures are then diluted in a cuvette containing MH II broth and the optical density is measured at 600 nm. The Inoculum is diluted such that 75 μL of this culture in Mueller-Hinton Broth results in a starting bacterial concentration of 5×10^5 CFU/mL when added to the dilution plates. The plates are incubated for 16-20 hours at 37° C. The MIC values are read visually as the lowest concentration well with no bacterial growth.

K. pneumoniae 848844 = assay: microbe, parasite or virus in culture; format: cell-based, Klebsiella pneumoniae; details: Klebsiella pneumoniae; K. pneumoniae 848844 producing SHV-11 and KPC-2; read-out: MIC K. pneumoniae 848844
Summary of the method: (§3)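 CLSI broth microdilution in cation-supplemented Mueller-Hinton broth; 2-fold compound dilutions inoculated at 5×10^5 CFU/mL from a 3-5 h log-phase culture. Plates incubated 16-20 hours at 37° C; MIC read visually as lowest concentration with no growth.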

P. aeruginosa ATCC 35151 = assay: microbe, parasite or virus in culture; format: cell-based; details: Pseudomonas aeruginosa, ATCC35151; hyper-permeable P. aeruginosa ATCC 35151; read-out: MIC P. aeruginosa ATCC 35151
Summary of the method: as §3

E. coli 901C = assay: microbe, parasite or virus in culture; format: cell-based; details: Escherichia coli; hyper-permeable E. coli 901C, broth microdilution; read-out: MIC E. coli 901C
Summary of the method: as §3

K. pneumoniae UMM = assay: microbe, parasite or virus in culture; format: cell-based; details: Klebsiella pneumoniae; K. pneumoniae UMM producing SHV-5 and KPC-2; read-out: MIC K. pneumoniae UMM
Summary of the method: as §3

[1] = system: P. aeruginosa (ΔmexAB-oprM); assay: microbe, parasite or virus in culture; format: cell-based; details: Pseudomonas aeruginosa, read-out: MIC P. aeruginosa ΔmexAB-OprM
Summary of the method: as §3

E. coli D22 = assay: microbe, parasite or virus in culture; format: cell-based; details: Escherichia coli; hyper-permeable E. coli D22, broth microdilution; read-out: MIC E. coli D22
Summary of the method: as §3

E. coli AG100A = assay: microbe, parasite or virus in culture; format: cell-based; details: Escherichia coli, read-out: MIC E. coli AG100A
Summary of the method: as §3

K. pneumoniae SI-117 = assay: microbe, parasite or virus in culture; format: cell-based; details: Klebsiella pneumoniae, SI117, read-out: MIC K. pneumoniae SI-117
Summary of the method: as §3

E. coli PBP3 = E. coli PBP3 (Escherichia coli (strain K12), UniProt P0AD68); assay: E. coli PBP3 Bocillin-FL fluorescence polarization competition binding assay
Summary of the method: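 This was a fluorescence polarization competition with fluorescent penicillin Bocillin-FL (0.1 μM final), read at 490/520 nm for 60 min immediately after its addition. The buffer was Hepes pH 8.0 with 300 mM NaCl and 5% glycerol, containing 1.5 μM PBP and test inhibitor up to 1000 μM. Potency is expressed as EC50 for reducing probe binding.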

E. coli ATCC 25922 = assay: Broth microdilution MIC, E. coli ATCC 25922; format: cell-based; details: Escherichia coli
Summary of the method: as §3

E. coli AG100 = assay: Broth microdilution MIC, E. coli AG100 (wild-type parent); format: cell-based; details: Escherichia coli; wild-type parent E. coli AG100, broth microdilution; read-out: MIC E. coli AG100
Summary of the method: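 Broth microdilution in cation-supplemented Mueller-Hinton broth, 2-fold serial compound dilutions, inoculum 5×10^5 CFU/mL from 3-5 h log culture.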

A. baumannii ATCC 19606 = assay: Broth microdilution MIC, A. baumannii ATCC 19606; format: cell-based; details: Acinetobacter baumannii
Description: as §1, §2

[2] = fluorescence polarization competition binding with Bocillin-FL, read-out: E. coli K12 PBP3 Potency
[3] = P. aeruginosa PAO1, broth microdilution, read-out: MIC P. aeruginosa PAO1
[4] = ATCC25922, E. coli ATCC 25922, broth microdilution, read-out: MIC E. coli 25922
[5] = ATCC19606, A. baumannii ATCC 19606, broth microdilution, read-out: MIC A. baumannii ATCC 19606

Sequence of E. coli PBP3 (P0AD68 whole entry): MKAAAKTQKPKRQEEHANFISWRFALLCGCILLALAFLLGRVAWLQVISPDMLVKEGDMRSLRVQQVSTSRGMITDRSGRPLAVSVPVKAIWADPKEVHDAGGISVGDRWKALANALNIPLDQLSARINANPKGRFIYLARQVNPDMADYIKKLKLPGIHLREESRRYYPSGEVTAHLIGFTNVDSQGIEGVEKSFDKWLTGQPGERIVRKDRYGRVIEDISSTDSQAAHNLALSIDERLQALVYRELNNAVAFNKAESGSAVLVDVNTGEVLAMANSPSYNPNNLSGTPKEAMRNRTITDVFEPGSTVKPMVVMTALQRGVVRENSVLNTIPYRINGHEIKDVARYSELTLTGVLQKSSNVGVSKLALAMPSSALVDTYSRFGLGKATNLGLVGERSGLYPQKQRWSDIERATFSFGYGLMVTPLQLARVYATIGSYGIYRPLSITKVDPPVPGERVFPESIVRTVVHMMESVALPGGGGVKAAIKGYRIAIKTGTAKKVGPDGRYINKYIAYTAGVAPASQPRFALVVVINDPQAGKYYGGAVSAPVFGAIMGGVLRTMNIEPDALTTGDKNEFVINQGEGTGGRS

SMILES | MIC (P. aeruginosa PAO1; PAO1, read-out: MIC P. aeruginosa PAO1) | MIC (K. pneumoniae 848844) | MIC (P. aeruginosa ATCC 35151) | MIC (E. coli 901C) | MIC (K. pneumoniae UMM) | MIC [1] | MIC (E. coli D22) | MIC (E. coli AG100A) | MIC (K. pneumoniae SI-117) | pEC50 (E. coli PBP3; [2]) | MIC (E. coli ATCC 25922; ATCC25922, read-out: MIC E. coli 25922) | MIC (E. coli AG100) | MIC (A. baumannii ATCC 19606; ATCC19606, read-out: MIC A. baumannii ATCC 19606) | MIC (P. aeruginosa PAO1; [3]) | pEC50 (E. coli PBP3) | MIC (E. coli ATCC 25922; [4]) | MIC (A. baumannii ATCC 19606; [5])
NS(=O)(=O)c1ccc([C@@H](NC(=O)N2CCN(CCBr)C(=O)C2=O)C(=O)N[C@H]2Cc3cccc(C(=O)O)c3OB2O)cc1O [Example 172, (R)-3-((R)-2-(4-(2-bromoethyl)-2,3-dioxopiperazine-1-carboxamido)-2-(3-hydroxy-4-sulfamoylphenyl)acetamido)-2-hydroxy-3,4-dihydro-2H-benzo[e][1,2]oxaborinine-8-carboxylic acid] | > 128 µg/mL | > 128 µg/mL | < 0.25 µg/mL | 0.5 to 1 µg/mL | 32 to 64 µg/mL | 2 to 4 µg/mL | 8 to 16 µg/mL | 8 to 16 µg/mL | > 128 µg/mL | > 4.52 | 32 to 64 µg/mL | 32 to 64 µg/mL | > 128 µg/mL | – | – | – | –
CCN1CCN(C(=O)NC(C(=O)N[C@H]2Cc3c(F)cc(F)c(C(=O)O)c3OB2O)c2ccc(O)c(O)c2Cl)C(=O)C1=O (stereo partly drawn) [Example 185, (3R)-3-(2-(2-chloro-3,4-dihydroxyphenyl)-2-(4-ethyl-2,3-dioxopiperazine-1-carboxamido)acetamido)-5,7-difluoro-2-hydroxy-3,4-dihydro-2H-benzo[e][1,2]oxaborinine-8-carboxylic acid] | – | 0.5 to 1 µg/mL | < 0.25 µg/mL | 0.5 to 1 µg/mL | 2 to 4 µg/mL | 0.5 to 1 µg/mL | 2 to 4 µg/mL | 2 to 4 µg/mL | 2 to 4 µg/mL | – | – | 2 to 4 µg/mL | – | > 128 µg/mL | 3.30 to 4.52 | 8 to 16 µg/mL | > 128 µg/mL
CCN1CCN(C(=O)NC(C(=O)N[C@H]2Cc3cccc(C(=O)O)c3OB2O)c2ccc(S(N)(=O)=O)cc2F)C(=O)C1=O (stereo partly drawn) [Example 203, (3R)-3-(2-(4-ethyl-2,3-dioxopiperazine-1-carboxamido)-2-(2-fluoro-4-sulfamoylphenyl)acetamido)-2-hydroxy-3,4-dihydro-2H-benzo[e][1,2]oxaborinine-8-carboxylic acid] | – | > 128 µg/mL | 0.5 to 1 µg/mL | < 0.25 µg/mL | 32 to 64 µg/mL | 8 to 16 µg/mL | 2 to 4 µg/mL | 2 to 4 µg/mL | > 128 µg/mL | > 4.52 | – | 32 to 64 µg/mL | – | > 128 µg/mL | – | 32 to 64 µg/mL | > 128 µg/mL
O=C(O)c1cccc2c1OB(O)[C@@H](NC(=O)C(NC(=O)N1C[C@@H]3CCCN3C(=O)C1=O)c1ccc(O)c(O)c1Cl)C2 (stereo partly drawn) [Example 222, (3R)-3-(2-(2-chloro-3,4-dihydroxyphenyl)-2-((S)-3,4-dioxooctahydropyrrolo[1,2-a]pyrazine-2-carboxamido)acetamido)-2-hydroxy-3,4-dihydro-2H-benzo[e][1,2]oxaborinine-8-carboxylic acid] | – | > 128 µg/mL | < 0.25 µg/mL | 32 to 64 µg/mL | 32 to 64 µg/mL | < 0.25 µg/mL | > 128 µg/mL | 32 to 64 µg/mL | > 128 µg/mL | – | – | 32 to 64 µg/mL | – | 8 to 16 µg/mL | 3.30 to 4.52 | > 128 µg/mL | 32 to 64 µg/mL
NCCN1CCN(C(=O)N[C@H](C(=O)N[C@H]2Cc3ccc(F)c(C(=O)O)c3OB2O)c2ncc(O)cc2F)C(=O)C1=O [Example 231, (R)-3-((S)-2-(4-(2-aminoethyl)-2,3-dioxopiperazine-1-carboxamido)-2-(3-fluoro-5-hydroxypyridin-2-yl)acetamido)-7-fluoro-2-hydroxy-3,4-dihydro-2H-benzo[e][1,2]oxaborinine-8-carboxylic acid] | – | 32 to 64 µg/mL | 0.5 to 1 µg/mL | 2 to 4 µg/mL | 32 to 64 µg/mL | 8 to 16 µg/mL | 8 to 16 µg/mL | 8 to 16 µg/mL | 32 to 64 µg/mL | – | – | 32 to 64 µg/mL | – | > 128 µg/mL | 3.30 to 4.52 | 32 to 64 µg/mL | > 128 µg/mL
